This is an account of results in patent publication US10414775B2 (Merck Sharp & Dohme Corp., priority 2016, dated 2019).

One may read the IC50 as the point on the concentration scale where inhibition reaches its midpoint.

The target in this series is T1, Human CYP8B1 (Homo sapiens, UniProt Q9UNU6).
T1 construct: tissue Xenotech; host or cells: human liver microsomes
T1 sequence (Q9UNU6 1-501): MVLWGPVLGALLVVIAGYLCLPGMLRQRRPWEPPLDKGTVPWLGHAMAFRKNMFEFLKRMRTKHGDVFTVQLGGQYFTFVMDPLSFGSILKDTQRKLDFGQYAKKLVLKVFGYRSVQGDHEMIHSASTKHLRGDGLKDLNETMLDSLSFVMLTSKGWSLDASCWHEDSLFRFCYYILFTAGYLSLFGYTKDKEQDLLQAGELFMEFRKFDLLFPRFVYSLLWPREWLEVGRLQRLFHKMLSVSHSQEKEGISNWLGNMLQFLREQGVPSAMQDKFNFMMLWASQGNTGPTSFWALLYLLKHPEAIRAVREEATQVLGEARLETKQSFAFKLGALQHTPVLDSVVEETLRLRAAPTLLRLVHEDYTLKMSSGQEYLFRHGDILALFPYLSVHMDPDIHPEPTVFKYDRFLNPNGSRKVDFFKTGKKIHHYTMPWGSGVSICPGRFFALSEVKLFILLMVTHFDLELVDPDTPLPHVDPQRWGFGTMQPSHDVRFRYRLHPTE
Nature of the series: Human Cyp8B1 Liver Microsome Assay. Type of series: biochemical. To be noted: human liver microsomes; substrate 7α-hydroxy-4-cholesten-3-one, NADPH; 30 min pre-incubation, 45 min reaction; RapidFire MS readout. The essentials: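 Human liver microsomes (65 μg/ml, 0.1 M phosphate pH 7.4) preincubated 30 min at room temperature with inhibitor (1.25% DMSO final), then reacted 45 min with 7α-hydroxy-4-cholesten-3-one and NADPH. 7α,12α-dihydroxy product quantified by RapidFire ESI+ MRM against d7 internal standard; IC50 from four-parameter logistic fit.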
A general note: Liver microsomes are vesicles of endoplasmic reticulum, rich in cytochrome P450 enzymes.

`C[C@@H]1CN(c2ccnc3c2CCN(C(=O)OC(C)(C)C)C3)CC[C@@H]1C(=O)N1CCn2c(nnc2C(F)(F)F)C1` [Example 59, tert-butyl 4-((3S,4S)-3-methyl-4-(3-(trifluoromethyl)-5,6,7,8-tetrahydro-[1,2,4]triazolo[4,3-a]pyrazine-7-carbonyl)piperidin-1-yl)-5,6-dihydro-1,7-naphthyridine-7(8H)-carboxylate] registered an IC50 of 8.2 nM.
For the molecule `C[C@@H]1CN(c2c(Cl)cnc3c2CCN(CC(F)(F)F)C3)CC[C@@H]1C(=O)N1CCn2c(nnc2C(F)(F)F)C1` [Example 60, ((3S,4S)-1-(3-chloro-7-(2,2,2-trifluoroethyl)-5,6,7,8-tetrahydro-1,7-naphthyridin-4-yl)-3-methylpiperidin-4-yl)(3-(trifluoromethyl)-5,6-dihydro-[1,2,4]triazolo[4,3-a]pyrazin-7(8H)-yl)methanone], the IC50 came to 0.8 nM.
The figure for `C[C@@H]1CN(c2c(Cl)cnc3c2CCN(CC2CC2)C3)CC[C@@H]1C(=O)N1CCn2c(nnc2C(F)(F)F)C1` [Example 61, ((3S,4S)-1-(3-chloro-7-(cyclopropylmethyl)-5,6,7,8-tetrahydro-1,7-naphthyridin-4-yl)-3-methylpiperidin-4-yl)(3-(trifluoromethyl)-5,6-dihydro-[1,2,4]triazolo[4,3-a]pyrazin-7(8H)-yl)methanone] is 1 nM.
The figure for `C[C@@H]1CN(c2c(Cl)cnc3c2CCN(c2ccccn2)C3)CC[C@@H]1C(=O)N1CCn2c(nnc2C(F)(F)F)C1` [Example 62, ((3S,4S)-1-(3-chloro-7-(pyridin-2-yl)-5,6,7,8-tetrahydro-1,7-naphthyridin-4-yl)-3-methylpiperidin-4-yl)(3-(trifluoromethyl)-5,6-dihydro-[1,2,4]triazolo[4,3-a]pyrazin-7(8H)-yl)methanone] is 0.4 nM; for `C[C@@H]1CN(c2ccnc3c2CCN(CC(F)(F)F)C3)CC[C@@H]1C(=O)N1CCn2c(nnc2C(F)(F)F)C1` [Example 63, ((3S,4S)-3-methyl-1-(7-(2,2,2-trifluoroethyl)-5,6,7,8-tetrahydro-1,7-naphthyridin-4-yl)piperidin-4-yl)(3-(trifluoromethyl)-5,6-dihydro-[1,2,4]triazolo[4,3-a]pyrazin-7(8H)-yl)methanone] it is 120 nM; for `C[C@@H]1CN(c2ccnc3c2CCN(C(=O)OC2(C)CC2)C3)CC[C@@H]1C(=O)N1CCn2c(nnc2C(F)(F)F)C1` [Example 64, 1-methylcyclopropyl 4-((3 S,4S)-3-methyl-4-(3-(trifluoromethyl)-5,6,7,8-tetrahydro-[1,2,4]triazolo[4,3-a]pyrazine-7-carbonyl)piperidin-1-yl)-5,6-dihydro-1,7-naphthyridine-7(8H)-carboxylate] it is 49 nM.
The figure for `C[C@@H]1CN(c2c(Cl)cnc3c2CCN(C(=O)C2CC2)C3)CC[C@@H]1C(=O)N1CCn2c(nnc2C(F)(F)F)C1` [Example 65, (3-chloro-4-((3S,4S)-3-methyl-4-(3-(trifluoromethyl)-5,6,7,8-tetrahydro-[1,2,4]triazolo[4,3-a]pyrazine-7-carbonyl)piperidin-1-yl)-5,6-dihydro-1,7-naphthyridin-7(8H)-yl)(cyclopropyl)methanone] is 1.75 nM; for `CC(C)NC(=O)c1ccc2c(N3CC[C@H](C(=O)N4CCn5c(nnc5C(F)(F)F)C4)[C@H](C)C3)ccnc2c1` [Example 66, N-isopropyl-4-((3 S,4S)-3-methyl-4-(3-(trifluoromethyl)-5,6,7,8-tetrahydro-[1,2,4]triazolo[4,3-a]pyrazine-7-carbonyl)piperidin-1-yl)quinoline-7-carboxamide] it is 4.5 nM.
Turning to `C[C@@H]1CN(c2ccnc3cc(C(=O)NCC4CC4)ccc23)CC[C@@H]1C(=O)N1CCn2c(nnc2C(F)(F)F)C1` [Example 67, N-(cyclopropylmethyl)-4-((3 S,4S)-3-methyl-4-(3-(trifluoromethyl)-5,6,7,8-tetrahydro-[1,2,4]triazolo[4,3-a]pyrazine-7-carbonyl)piperidin-1-yl)quinoline-7-carboxamide], the IC50 was 23.6 nM.
As for `C[C@@H]1CN(c2ccnc3cc(C(=O)NC45CC(C4)C5)ccc23)CC[C@@H]1C(=O)N1CCn2c(nnc2C(F)(F)F)C1` [Example 68, N-(bicyclo[1.1.1]pentan-1-yl)-4-((3S,4S)-3-methyl-4-(3-(trifluoromethyl)-5,6,7,8-tetrahydro-[1,2,4]triazolo [4,3-a]pyrazine-7-carbonyl)piperidin-1-yl) quinoline-7-carboxamide], the figure is 21.1 nM; as for `CCNC(=O)c1ccc2c(N3CC[C@H](C(=O)N4CCn5c(nnc5C(F)(F)F)C4)[C@H](C)C3)ccnc2c1` [Example 69, N-ethyl-4-((3S,4S)-3-methyl-4-(3-(trifluoromethyl)-5,6,7,8-tetrahydro-[1,2,4]triazolo [4,3-a]pyrazine-7-carbonyl)piperidin-1-yl) quinoline-7-carboxamide], 368 nM; as for `CCNC(=O)c1ccc2c(N3CC[C@H](C(=O)N4CCn5c(nnc5C(F)(F)F)C4)[C@H](C)C3)c(Cl)cnc2c1` [Example 70, 3-chloro-N-ethyl-4-((3 S,4S)-3-methyl-4-(3-(trifluoromethyl)-5,6,7,8-tetrahydro-[1,2,4]triazolo[4,3-a]pyrazine-7-carbonyl)piperidin-1-yl)quinoline-7-carboxamide], 0.7 nM.
The figure for `C[C@@H]1CN(c2ccnc3cc(S(C)(=O)=O)ccc23)CC[C@@H]1C(=O)N1CCn2c(nnc2C(F)(F)F)C1` [Example 71, ((3 S,4S)-3-methyl-1-(7-(methylsulfonyl)quinolin-4-yl)piperidin-4-yl)(3-(trifluoromethyl)-5,6-dihydro-[1,2,4]triazolo[4,3-a]pyrazin-7(8H)-yl)methanone] is 305 nM; for `C[C@@H]1CN(c2c(Cl)cnc3cc(S(C)(=O)=O)ccc23)CC[C@@H]1C(=O)N1CCn2c(nnc2C(F)(F)F)C1` [Example 72, ((3S,4S)-1-(3-chloro-7-(methylsulfonyl)quinolin-4-yl)-3-methylpiperidin-4-yl)(3-(trifluoromethyl)-5,6-dihydro-[1,2,4]triazolo[4,3-a]pyrazin-7(8H)-yl)methanone] it is 1.2 nM; for `C[C@@H]1CN(c2ccnc3cc(-c4ncco4)ccc23)CC[C@@H]1C(=O)N1CCn2c(nnc2C(F)(F)F)C1` [Example 73, ((3S,4S)-3-methyl-1-(7-(oxazol-2-yl)quinolin-4-yl)piperidin-4-yl)(3-(trifluoromethyl)-5,6-dihydro-[1,2,4]triazolo[4,3-a]pyrazin-7(8H)-yl)methanone] it is 0.4 nM.
For `C[C@@H]1CN(c2ccnc3cc(-n4cncn4)ccc23)CC[C@@H]1C(=O)N1CCn2c(nnc2C(F)(F)F)C1` [Example 74, ((3S,4S)-1-(7-(1H-1,2,4-triazol-1-yl)quinolin-4-yl)-3-methylpiperidin-4-yl)(3-(trifluoromethyl)-5,6-dihydro-[1,2,4]triazolo[4,3-a]pyrazin-7(8H)-yl)methanone], half-maximal inhibition (IC50) required 41.7 nM.
As to `Cc1coc(-c2ccc3c(N4CC[C@H](C(=O)N5CCn6c(nnc6C(F)(F)F)C5)[C@H](C)C4)ccnc3c2)n1` [Example 75, ((3S,4S)-3-methyl-1-(7-(4-methyloxazol-2-yl)quinolin-4-yl)piperidin-4-yl)(3-(trifluoromethyl)-5,6-dihydro-[1,2,4]triazolo[4,3-a]pyrazin-7(8H)-yl)methanone], 1.4 nM corresponded to half-maximal inhibition (IC50).
